Reference: patent US7311743B2, “Biofiltration apparatus and method for reducing methyl bromide concentration in a volume of gas” (Energy Resource Institute, Inc., priority 2004, dated 2007)

Experiments:
[1] = Air/organic phase partition coefficient of methyl bromide; type: physicochemical; settings: gas over liquid concentration
Description: If necessary, the air/organic phase partition coefficients of methyl bromide in these and other potential organic liquids may be determined by adding a known amount of an organic liquid and methyl bromide to a 250 mL flask with TEFLON-lined silicon septa. A gas headspace may be analyzed for methyl bromide by gas chromatography, and the partition of methyl bromide may be calculated. In certain embodiments, corn oil may be preferred since the air/corn oil partition coefficient for methyl bromide is 0.02, i.e., about ten times lower than with water. Based on calculations, a Henry coefficient of 0.005 may be ideal for load dampening. The organic phase should meet various requirements, such as a low vapor pressure, low toxicity, non-miscibility with water, and being non-biodegradable. Additional examples of liquids may include di-n-octylphtalate, di-n-nonylphtalate, polydimethylsiloxane, and silicone oil. Methyl bromide concentrations in the inlet and outlet air may be determined (continuously or semi-continuously) with a photoionization detector (PID) analyzer, for example. […] Potential carry over of aerosol to the outlet stream may be determined to evaluate whether a demister might be beneficial. For either the GAC or liquid absorption system, the results may be analyzed with mathematical model (see FIG. 19).

[2] = test system: methyl bromide-degrading bacteria; experiment: Methyl bromide removal in the biotrickling filter
Text: A biotrickling filter was constructed as schematically represented in FIG. 2. The apparatus included three packed bed sections filled with lava rock, perlite or polyurethane as packing materials. Other equipment included an air supply, a methyl bromide supply, recycle liquid circulation, a nutrient supply (as a complete mineral medium), and a pH control by automatic addition of NaOH. The biotrickling filter was usually operated at standard conditions as specified in Table 1.
Cultures of methyl bromide-degrading bacteria were obtained by inoculating or exposing the substrate component of the apparatus with a variety of natural sources or materials, such as soil and sediment. A continuous supply of a low concentration (about 0 to about 10 g/m^3) of methyl bromide was supplied to the apparatus. The first signs of methyl bromide removal were observed after about 6-12 days of operation of the apparatus. The methyl bromide elimination capacity seemed to reach a maximum value after about 35-40 days of operation. During operation, the pH in the recycle liquid declined, small amounts of bromide were produced in the recycle liquid, and the CO2 concentration in the outlet air increased.
The fate of methyl bromide in the biotrickling filter was determined by comparing the rate of methyl bromide removal with the rates of CO2 production, bromide ion production and NaOH consumption as expected from the biodegradation reaction stoichiometry. Biodegradation of methyl bromide and pH control occur according to the following reactions 2CH3Br+3O2→2HBr+2 CO2+2H2O Equation 3 HBr+NaOH→NaBr+H2O Equation 4
The effect of the liquid recycle or trickling rate was examined at the lower and higher end of the range of recycle rates commonly employed in biotrickling filters. Methyl bromide removal was the same at a trickling rates of 2.55 and 22.2 L/h, corresponding to superficial liquid velocities of 2.0 and 17.7 m/h, respectively (Table 2).
The maximum elimination capacity of methyl bromide in the biotrickling filter was determined by stepwise increasing the methyl bromide concentration. Depending on the inlet concentration, the following phases can be distinguished: […]

CBr [Methyl bromide]
Air/corn oil partition coefficient [1]: 0.02 | Removal efficiency ([2]; gas flow cocurrent, EBRT = 94 s, inlet 3.042 g/m^3): 63% | Removal efficiency ([2]; gas flow countercurrent (standard operation), EBRT = 94 s, inlet 3.713 g/m^3): 70% | Concentration at which a reduction of the elimination capacity (toxic effect on microorganisms) was observed ([2]; inlet air concentration (3300 ppm)): greater than 13 g/m^3 | Removal efficiency ([2]; low inlet concentrations increasing up to 3 g/m^3): greater than 96% | Removal efficiency ([2]; superficial liquid velocity 2.0 m/h (standard operation), EBRT = 94 s, inlet 2.927 g/m^3): 89% | Removal efficiency ([2]; superficial liquid velocity 17.7 m/h, EBRT = 94 s, inlet 2.927 g/m^3): 91%

[Br-].[Na+] [NaBr, sodium bromide]
NaBr concentration in the recycle liquid at which inhibition of methyl bromide removal was observed ([2]; recycle liquid (48 g/L)): ≥ 0.47 M
